In PMC7556481 (PLoS Pathogens, 2020):
pEC50: −log10 of the molar value.

Target: T1, C. elegans ser-7a / SER-7 (Caenorhabditis elegans, UniProt Q22895)
T1 construct: ser-7a cDNA expressed pan-neuronally (Psnb-1) in C. elegans ser-7(tm1325) null mutant
T1 sequence (Q22895 1-435): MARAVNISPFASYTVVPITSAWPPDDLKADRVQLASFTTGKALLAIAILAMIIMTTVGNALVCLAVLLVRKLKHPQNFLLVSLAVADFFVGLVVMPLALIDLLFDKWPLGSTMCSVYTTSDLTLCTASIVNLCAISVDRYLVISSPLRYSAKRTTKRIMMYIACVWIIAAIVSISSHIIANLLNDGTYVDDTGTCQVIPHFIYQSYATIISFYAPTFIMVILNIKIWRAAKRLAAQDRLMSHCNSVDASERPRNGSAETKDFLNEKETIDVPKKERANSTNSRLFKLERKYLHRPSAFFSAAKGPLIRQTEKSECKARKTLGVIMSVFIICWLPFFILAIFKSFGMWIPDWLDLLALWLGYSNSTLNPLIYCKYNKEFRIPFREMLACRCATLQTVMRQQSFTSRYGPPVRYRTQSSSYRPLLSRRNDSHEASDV
Assay: pharyngeal pumping of cut-head preparation, C. elegans ser-7 null expressing ser-7a
Settings: agonist; Dent's saline pH 7.4, 0.1% BSA; response dependent on SER-7

Compound: NCCc1c[nH]c2ccc(O)cc12 [serotonin]
- pEC50: 6.11
